Assay results: the NIST ThermoML archive (doi:10.1021/je501054c)
Values joined by “and” are separate entries in the source; they are usually repeats but may differ in a detail not shown here. Equal values may be shown once. Numbers after ± are expanded uncertainties.

Test: mn = molality of the nth substance listed, in mol/kg
Conditions: 100 kPa, Liquid; for viscosity: Capillary tube (Ostwald / Ubbelohde) method; for mass density: Vibrating tube method

C(=NCCN=Cc1ccccn1)c1ccccn1 [N,N'-bis(2-pyridinylmethylene)-1,2-ethanediamine] + CC#N
Conditions	mass density, 298.15 K	mass density, 303.15 K	mass density, 308.15 K	mass density, 313.15 K	viscosity, 298.15 K
m1 = 0.0396	–	–	–	–	0.3511 ± 0.0074 mPa·s
m1 = 0.0397	778.8 ± 3.9 kg/m3	770.6 ± 3.9 kg/m3	762.7 ± 3.8 kg/m3	754.02 ± 3.8 kg/m3	0.359 ± 0.0076 mPa·s
m1 = 0.0412	778.98 ± 3.9 kg/m3 and 778.99 ± 3.9 kg/m3	773.9 ± 3.9 kg/m3 and 773.55 ± 3.9 kg/m3	765.55 ± 3.8 kg/m3 and 766.66 ± 3.8 kg/m3	759.53 ± 3.8 kg/m3 and 758.9 ± 3.8 kg/m3	0.352 ± 0.0075 mPa·s and 0.368 ± 0.0078 mPa·s
m1 = 0.0707	781 ± 3.9 kg/m3	775.97 ± 3.9 kg/m3	767.82 ± 3.8 kg/m3	761.2 ± 3.8 kg/m3	0.372 ± 0.0079 mPa·s
m1 = 0.076	781.24 ± 3.9 kg/m3	772.52 ± 3.9 kg/m3	764.1 ± 3.8 kg/m3	756.48 ± 3.8 kg/m3	0.3695 ± 0.0078 mPa·s
m1 = 0.0794	781.36 ± 3.9 kg/m3	775.79 ± 3.9 kg/m3	769.83 ± 3.9 kg/m3	761.42 ± 3.8 kg/m3	0.367 ± 0.0078 mPa·s
m1 = 0.085	781.2 ± 3.9 kg/m3	776.45 ± 3.9 kg/m3	769.8 ± 3.9 kg/m3	762.5 ± 3.8 kg/m3	0.357 ± 0.0076 mPa·s
m1 = 0.1109	783.49 ± 3.9 kg/m3	778.35 ± 3.9 kg/m3	771.54 ± 3.9 kg/m3	764.87 ± 3.8 kg/m3	0.381 ± 0.0081 mPa·s
m1 = 0.1136	783.49 ± 3.9 kg/m3	778.33 ± 3.9 kg/m3	771.48 ± 3.9 kg/m3	764.85 ± 3.8 kg/m3	0.368 ± 0.0078 mPa·s
m1 = 0.1159	783.49 ± 3.9 kg/m3	775.25 ± 3.9 kg/m3	767.32 ± 3.8 kg/m3	759.62 ± 3.8 kg/m3	0.374 ± 0.0079 mPa·s
m1 = 0.1172	783.63 ± 3.9 kg/m3	777.74 ± 3.9 kg/m3	772.75 ± 3.9 kg/m3	767.66 ± 3.8 kg/m3	0.374 ± 0.0079 mPa·s
m1 = 0.1441	785.8 ± 3.9 kg/m3	780.11 ± 3.9 kg/m3	774.3 ± 3.9 kg/m3	767.8 ± 3.8 kg/m3	0.397 ± 0.0084 mPa·s
m1 = 0.1487	786.71 ± 3.9 kg/m3	778.7 ± 3.9 kg/m3	769.46 ± 3.9 kg/m3	761.79 ± 3.8 kg/m3	0.395 ± 0.0083 mPa·s
m1 = 0.1539	785.86 ± 3.9 kg/m3	780.33 ± 3.9 kg/m3	775.54 ± 3.9 kg/m3	770.79 ± 3.9 kg/m3	0.381 ± 0.0081 mPa·s
m1 = 0.1655	785.87 ± 3.9 kg/m3	780.09 ± 3.9 kg/m3	774.28 ± 3.9 kg/m3	767.87 ± 3.8 kg/m3	0.375 ± 0.0079 mPa·s
m1 = 0.396	779.08 ± 3.9 kg/m3	773.62 ± 3.9 kg/m3	766.62 ± 3.8 kg/m3	760.23 ± 3.8 kg/m3	–
